Columns and labels:
Assay in all cases: In vitro antimicrobial activity, two-fold agar-plate dilution method
Format in all cases: cell-based
[1] = system: K. pneumoniae 20; settings: Klebsiella pneumoniae, heart infusion agar, 37° C., 20 hours, approximately 10^8 viable cells per ml, read-out: MIC (minimal inhibitory concentration)
Method: (§1) Test: In vitro Antimicrobial Activity
(§2) In vitro Antimicrobial activity was determined by the two-fold agar-plate dilution method as described below.
(§3) One loopful of an overnight culture of each test strain in Tripticase-soy broth (approximately 10^8 viable cells per ml) was streaked on heart infusion agar (HI-agar) containing graded concentrations of an antimicrobial agent, and the minimal inhibitory concentration (MIC) was expressed in term of μg/ml after incubation at 37° C. for 20 hours.

[2] = system: E. coli NIHJ JC - 2; settings: Escherichia coli, heart infusion agar, 37° C., 20 hours, approximately 10^8 viable cells per ml, read-out: MIC (minimal inhibitory concentration)
Method: as §1, §2, §3

[3] = system: E. coli 31; settings: Escherichia coli, heart infusion agar, 37° C., 20 hours, approximately 10^8 viable cells per ml, read-out: MIC (minimal inhibitory concentration)
Method: as §1, §2, §3

Measured: MIC

CO/N=C(\C(=O)NC1C(=O)N2C(C(=O)[O-])=C(C[n+]3cccc(N)c3)CSC12)c1csc(N)n1 (stereo not drawn) [Compound A, 7-[2-Methoxyimino-2-(2-aminothiazol-4-yl)acetamido]-3-(3-amino-1-pyridiniomethyl)-3-cephem-4-carboxylate (syn isomer)]
< 0.025 µg/mL: all assays above

From patent US4550102A, “Cephem compounds” (Fujisawa Pharmaceutical Co. Ltd., priority 1981, dated 1985)
